# Test results published in patent US20260325533A1, “CDK INHIBITOR COMPOUNDS” (ALEKSIA THERAPEUTICS, INC., priority 2023, published 2026).
# Read-outs that look alike come from different tables or passages of the source.
# Legend:
# Type in all cases: biochemical
# CDK2/CCNE1 = CDK2/CCNE1 (Homo sapiens, UniProt P24941); assay: CDK2 homogeneous time-resolved fluorescence (HTRF) kinase assay; conditions: CDK2/CCNE
# How it was run: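 Compounds were titrated 11-point, half-log from typically 10 μM against 3 nM CDK2/cyclin E1 at 1 mM ATP, with a 20 min enzyme preincubation. Phosphorylation of 50 nM ULight-4E-BP1 peptide over 60 min at 23 °C was detected by europium anti-phospho antibody TR-FRET.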
# CDK1/CCNB1 = CDK1/CCNB1 (Homo sapiens, UniProt P06493); assay: CDK1 homogeneous time-resolved fluorescence (HTRF) kinase assay; conditions: CDK1/CCNB
# Chain of CDK1/CCNB1 (P06493 whole entry): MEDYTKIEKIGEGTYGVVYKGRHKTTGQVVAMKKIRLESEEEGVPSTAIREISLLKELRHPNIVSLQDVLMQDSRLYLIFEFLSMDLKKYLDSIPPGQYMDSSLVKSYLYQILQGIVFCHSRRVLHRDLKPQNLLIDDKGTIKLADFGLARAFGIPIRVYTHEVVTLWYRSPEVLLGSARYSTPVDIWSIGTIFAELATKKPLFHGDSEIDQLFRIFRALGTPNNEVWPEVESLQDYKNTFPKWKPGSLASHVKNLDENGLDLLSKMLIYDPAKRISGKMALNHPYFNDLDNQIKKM
# Chain of CDK1/CCNB1 (P14635 whole entry partner): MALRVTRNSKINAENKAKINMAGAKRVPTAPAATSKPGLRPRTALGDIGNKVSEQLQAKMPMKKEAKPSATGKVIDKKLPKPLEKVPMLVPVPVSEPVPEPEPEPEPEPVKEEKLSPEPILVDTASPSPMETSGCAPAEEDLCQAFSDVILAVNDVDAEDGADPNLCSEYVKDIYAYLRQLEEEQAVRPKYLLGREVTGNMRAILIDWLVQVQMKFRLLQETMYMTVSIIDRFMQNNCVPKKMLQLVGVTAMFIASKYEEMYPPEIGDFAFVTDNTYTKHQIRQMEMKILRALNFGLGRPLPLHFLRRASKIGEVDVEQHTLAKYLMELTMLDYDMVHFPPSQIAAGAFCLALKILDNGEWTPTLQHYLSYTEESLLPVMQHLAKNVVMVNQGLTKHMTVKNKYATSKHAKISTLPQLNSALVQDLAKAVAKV
# How it was run: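 Kinase activity is measured as Lance signal (665 nm, or 665/615 nm ratio) from europium-labelled anti-phospho-Thr37/46 antibody binding ULight-4E-BP1 peptide. Reactions contain 0.5 nM enzyme, 1 mM ATP, 1% DMSO and run 60 min at 23 °C before EDTA quench.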
# CDK4/CCND3 = CDK4/CCND3 (Homo sapiens, UniProt P11802); assay: CDK4 homogeneous time-resolved fluorescence (HTRF) kinase assay; conditions: CDK4/CCND
# Chain of CDK4/CCND3 (P11802 whole entry): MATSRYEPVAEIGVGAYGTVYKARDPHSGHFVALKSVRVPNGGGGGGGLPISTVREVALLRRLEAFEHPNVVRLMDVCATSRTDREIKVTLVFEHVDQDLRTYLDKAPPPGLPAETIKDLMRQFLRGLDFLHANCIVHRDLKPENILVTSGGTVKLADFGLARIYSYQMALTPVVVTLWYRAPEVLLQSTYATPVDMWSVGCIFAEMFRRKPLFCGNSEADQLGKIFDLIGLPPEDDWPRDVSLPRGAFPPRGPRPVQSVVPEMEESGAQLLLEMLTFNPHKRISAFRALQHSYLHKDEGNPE
# Chain of CDK4/CCND3 (P30281 whole entry partner): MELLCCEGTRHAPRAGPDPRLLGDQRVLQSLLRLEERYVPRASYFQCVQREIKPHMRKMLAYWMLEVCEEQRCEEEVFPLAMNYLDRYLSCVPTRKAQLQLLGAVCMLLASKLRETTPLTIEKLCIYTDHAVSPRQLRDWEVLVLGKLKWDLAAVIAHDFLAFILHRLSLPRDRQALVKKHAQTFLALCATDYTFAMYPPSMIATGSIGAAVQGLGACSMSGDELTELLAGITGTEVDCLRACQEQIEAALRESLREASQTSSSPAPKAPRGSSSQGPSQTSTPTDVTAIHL
# How it was run: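 CDK4/CCND3 at 1.5 nM was preincubated with compound for 20 min at 23 °C, then reacted for 60 min with 1 mM ATP and 50 nM ULight-4E-BP1 (Thr37/46) peptide. The reaction was stopped with EDTA, and phosphorylation was read by HTRF with a Eu-anti-phospho antibody. IC50 values came from 11-point half-log titrations, typically from 10 μM.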
# CDK6/CCND1 = CDK6/CCND1 (Homo sapiens, UniProt Q00534); assay: CDK6 homogeneous time-resolved fluorescence (HTRF) kinase assay; conditions: CDK6/CCND
# Chain of CDK6/CCND1 (Q00534 whole entry): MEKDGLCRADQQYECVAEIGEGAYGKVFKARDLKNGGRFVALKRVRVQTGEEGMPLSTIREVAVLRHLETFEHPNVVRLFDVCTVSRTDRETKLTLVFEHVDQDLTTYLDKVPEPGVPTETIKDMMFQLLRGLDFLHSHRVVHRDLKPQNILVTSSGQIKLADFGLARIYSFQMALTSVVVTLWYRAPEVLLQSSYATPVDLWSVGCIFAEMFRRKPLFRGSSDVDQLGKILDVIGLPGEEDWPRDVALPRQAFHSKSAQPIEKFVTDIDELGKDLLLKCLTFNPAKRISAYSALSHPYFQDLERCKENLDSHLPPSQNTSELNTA
# Chain of CDK6/CCND1 (P24385 whole entry partner): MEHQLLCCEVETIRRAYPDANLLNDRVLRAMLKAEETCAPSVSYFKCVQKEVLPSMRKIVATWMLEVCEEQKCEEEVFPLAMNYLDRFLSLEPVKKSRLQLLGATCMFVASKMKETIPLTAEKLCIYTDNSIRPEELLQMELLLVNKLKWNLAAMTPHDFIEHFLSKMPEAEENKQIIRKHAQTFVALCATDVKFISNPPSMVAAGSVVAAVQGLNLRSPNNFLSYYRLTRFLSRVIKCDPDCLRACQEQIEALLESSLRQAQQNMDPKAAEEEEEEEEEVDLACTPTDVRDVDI
# How it was run: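 Enzyme pre-incubated 20 min at 23 °C with compound, then reacted 60 min at 23 °C with 1 mM ATP and 50 nM ULight-4E-BP1 (Thr37/46) peptide; 1 nM enzyme, 1% DMSO. EDTA-stopped, Eu-anti-phospho antibody TR-FRET read (665 nm or 665/615 ratio); 11-point half-log titration from 10 μM gave IC50.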
# [1] = <25 nM, read-out: CDK2/CCNE IC50 <25 nM
# [2] = 25-250 nM marked x, read-out: CDK1/CCNB IC50 25-250 nM
# [3] = <25 nM, read-out: CDK4/CCND IC50 <25 nM
# [4] = <25 nM, read-out: CDK6/CCND IC50 <25 nM
# [5] = >250 nM marked x, read-out: CDK1/CCNB IC50 >250 nM
# [6] = 25-250 nM marked x, read-out: CDK4/CCND IC50 25-250 nM
# [7] = 25-250 nM marked x, read-out: CDK6/CCND IC50 25-250 nM
# [8] = 25-250 nM marked x, read-out: CDK2/CCNE IC50 25-250 nM
SMILES,IC50 (CDK2/CCNE1; [1]) [nM],IC50 (CDK1/CCNB1; [2]) [nM],IC50 (CDK4/CCND3; [3]) [nM],IC50 (CDK6/CCND1; [4]) [nM],IC50 (CDK1/CCNB1; [5]) [nM],IC50 (CDK4/CCND3; [6]) [nM],IC50 (CDK6/CCND1; [7]) [nM],IC50 (CDK2/CCNE1; [8]) [nM],"IC50 (CDK1/CCNB1; <25 nM, read-out: CDK1/CCNB IC50 <25 nM) [nM]"
"CS(=O)(=O)N1CCC(Nc2cc3c(-c4ccc5cc[nH]c5c4)nccc3cn2)CC1 [Ex 89, 5-(1H-indol-6-yl)-N-(1-(methylsulfonyl)piperidin-4-yl)-2,6-naphthyridin-3-amine]",< 25,25 to 250,< 25,< 25,–,–,–,–,–
"CS(=O)(=O)N1CCC(Nc2cc3c(-c4cc[nH]c4)nccc3cn2)CC1 [Ex 90, N-(1-(methylsulfonyl)piperidin-4-yl)-5-(1H-pyrrol-3-yl)-2,6-naphthyridin-3-amine]",< 25,–,–,–,> 250,25 to 250,25 to 250,–,–
"CS(=O)(=O)N1CCC(Nc2cc3c(-c4ccc5c(c4)CC(=O)N5)nccc3cn2)CC1 [Ex 91, 5-(7-((1-(methylsulfonyl)piperidin-4-yl)amino)-2,6-naphthyridin-1-yl)indolin-2-one]",< 25,–,–,–,> 250,25 to 250,25 to 250,–,–
"CN(CCO)C(=O)c1nccc2cnc(NC3CCN(S(C)(=O)=O)CC3)cc12 [Ex 96, N-(2-hydroxyethyl)-N-methyl-7-((1-(methylsulfonyl)piperidin-4-yl)amino)-2,6-naphthyridine-1-carboxamide]",–,25 to 250,–,–,–,25 to 250,25 to 250,25 to 250,–
"Oc1ccc(Nc2cc3c(C4=CCCCC4)nccc3cn2)cc1 [Ex 99, 4-((5-(cyclohex-1-en-1-yl)-2,6-naphthyridin-3-yl)amino)phenol]",< 25,25 to 250,–,< 25,–,25 to 250,–,–,–
"Oc1cccc(Nc2cc3c(C4=CCCCC4)nccc3cn2)c1 [Ex 100, 3-((5-(cyclohex-1-en-1-yl)-2,6-naphthyridin-3-yl)amino)phenol]",< 25,–,–,< 25,> 250,25 to 250,–,–,–
"CS(=O)(=O)N1CCC(Nc2cc3c(C4=CCCCC4)nccc3cn2)CC1 [Ex 102, 5-(cyclohex-1-en-1-yl)-N-(1-(methylsulfonyl)piperidin-4-yl)-2,6-naphthyridin-3-amine]",< 25,25 to 250,< 25,< 25,–,–,–,–,–
"C=CS(=O)(=O)N1CCC(Nc2cc3c(N4CCC(C5CCN(C)CC5)CC4)nccc3cn2)CC1 [Ex 103, 5-(1'-methyl-[4,4'-bipiperidin]-1-yl)-N-(1-(vinylsulfonyl)piperidin-4-yl)-2,6-naphthyridin-3-amine]",–,–,–,–,> 250,25 to 250,25 to 250,25 to 250,–
"C=CS(=O)(=O)N1CCC(Nc2cc3c(N4CCC(C#N)CC4)nccc3cn2)CC1 [Ex 106, 1-(7-((1-(vinylsulfonyl)piperidin-4-yl)amino)-2,6-naphthyridin-1-yl)piperidine-4-carbonitrile]",< 25,25 to 250,–,–,–,25 to 250,25 to 250,–,–
"C=CS(=O)(=O)N1CCC(Nc2cc3c(-c4ccncc4C)nccc3cn2)CC1 [Ex 107, 5-(3-methylpyridin-4-yl)-N-(1-(vinylsulfonyl)piperidin-4-yl)-2,6-naphthyridin-3-amine]",< 25,–,–,–,> 250,25 to 250,25 to 250,–,–
"O=C(ON1C(=O)CCC1=O)c1ccc(Nc2cc3c(C4=CCCCC4)nccc3cn2)cc1 [Ex 113, 2,5-dioxopyrrolidin-1-yl 4-((5-(cyclohex-1-en-1-yl)-2,6-naphthyridin-3-yl)amino)benzoate]",< 25,–,–,–,–,25 to 250,25 to 250,–,< 25
"Cc1c(-c2nccc3cnc(NC4CCN(S(C)(=O)=O)CC4)cc23)ccc2[nH]ncc12 [Ex 116, 5-(4-methyl-1H-indazol-5-yl)-N-(1-(methylsulfonyl)piperidin-4-yl)-2,6-naphthyridin-3-amine]",< 25,25 to 250,< 25,< 25,–,–,–,–,–
"Cc1cc2[nH]ncc2cc1-c1nccc2cnc(NC3CCN(S(C)(=O)=O)CC3)cc12 [Ex 117, 5-(6-methyl-1H-indazol-5-yl)-N-(1-(methylsulfonyl)piperidin-4-yl)-2,6-naphthyridin-3-amine]",< 25,25 to 250,< 25,< 25,–,–,–,–,–
